Laboratory results from patent US20230047825A1, “ANTIMICROBIAL PEPTIDES” (priority 2019, published 2023).
Values joined by “and” are separate entries in the source; they are usually repeats but may differ in a detail not shown here. Equal entries are not always repeated. Marks after values point to notes of the source that are not given here. Where a SMILES comes first, the peptide text is derived from it.

Experiments:
[1] = Maximum Tolerated Dose (MTD) assessment, IV TID q8h: mortality, body weight, clinical observations; format: in vivo, mouse; parameters: key to Irritability / Hyperactivity / Inc. Startle / Inc. Touch / Dec. Startle Response / Dec. Touch Response / Inc. Exploration / Dec. Exploration / Pinna / Placing / Tremor / Dec. Spont. Activity / Straub Tail / Reactivity / Righting / Ataxia / Convulsion C.T.C-T / Low Limb Post / Abdominal Tone / Limb Tone / Grip Strength / Salivation F.V. / Lacrimation / Diarrhea / Body Temperature / Piloerection / Inc. Palpebral Size / Dec. Palpebral Size / Others / Death: “−” no effects; “±”: Slight to moderate effects; +: Severe effects; “C.”: Cyanosis; “D.”: Depth; E: Edema; conditions: for Body Weight, individual animals No. 1-4 / Mortality (total number of deaths/total number of animals): IV; for Body Temperature / Death / Dec. Palpebral Size / Diarrhea / Inc. Palpebral Size / Lacrimation / Others / Piloerection / Respiration / Salivation F.V. / Skin Color: AUTONOMIC; for Body Temperature / Death / Dec. Palpebral Size / Diarrhea / Inc. Palpebral Size / Lacrimation / Others / Piloerection / Respiration / Salivation F.V. / Skin Color / Dec. Exploration / Dec. Startle Response / Dec. Touch Response / Hyperactivity / Inc. Exploration / Inc. Startle / Inc. Touch / Irritability / Pinna / Placing / Ataxia / Convulsion C.T.C-T / Dec. Spont. Activity / Grip Strength / Limb Tone / Low Limb Post / Reactivity / Righting / Straub Tail / Tremor / Abdominal Tone: 5 minutes after 1st dosing, ICR mice, animals No. 1-4; for Dec. Exploration / Dec. Startle Response / Dec. Touch Response / Hyperactivity / Inc. Exploration / Inc. Startle / Inc. Touch / Irritability / Pinna / Placing: BEHAVIORAL; for Ataxia / Convulsion C.T.C-T / Dec. Spont. Activity / Grip Strength / Limb Tone / Low Limb Post / Reactivity / Righting / Straub Tail / Tremor / Abdominal Tone: NEUROLOGIC
Method: Tolerability analysis was conducted to determine the upper limit of D-PLEUROCIDIN-KR dosage. Test article solutions were intravenously (IV) administered to immunocompetent ICR mice with the dose schedule and concentrations indicated in the study design in the table below.
The animals were not infected. Doses were IV administered thrice (TID) with 8 h intervals (q8h) between doses. Animals were humanely euthanized after 3 days of the last treatment or at humane endpoints.
The MTD assessment was performed with immunocompetent female ICR mice, weighing 22 f 2 g. All animals were specific pathogen free.
Test articles were administered to animals by IV injections following the dose schedule, volumes, and concentrations indicated the Table above for MTD study. […] Animals were humanely euthanized if severe acute toxicity was observed during the experimental period.
The adverse effects were monitored at 5 minutes via cage-side observation after each subsequent IV administration on Day 1. Animals were observed again for mortality at 72 h after the last treatment. Body weights were recorded before each treatment and at 72 h after the last treatment. If overt toxicity was observed after the 1st or 2nd dose of a group, the 2nd or 3rd dose of that group was not administered.
Any adverse events observed were summarized. List of scores from observation assessments were also recorded.

[2] = as above; format: in vivo, mouse; conditions: 5 mg/kg (IV, TID, q8h)
[3] = 5 mg/kg, TID q8h, 24 h of 3rd dosing
[4] = 5 mg/kg, TID q8h, 48 h of 3rd dosing
[5] = 5 mg/kg, TID q8h, 72 h of 3rd dosing
[6] = 10 mg/kg, 24 h of 3rd dosing (2nd and 3rd doses not administered)
[7] = 10 mg/kg, 48 h of 3rd dosing (2nd and 3rd doses not administered)
[8] = 10 mg/kg, 72 h of 3rd dosing (2nd and 3rd doses not administered)

## CC(C)C[C@@H](NC(=O)[C@@H](Cc1ccc(O)cc1)NC(=O)[C@@H](Cc1c[nH]cn1)NC(=O)[C@H](NC(=O)[C@@H](CC(C)C)NC(=O)[C@@H](C)NC(=O)[C@@H](C)NC(=O)[C@@H](CCCNC(=N)N)NC(=O)CNC(=O)[C@H](NC(=O)[C@@H](Cc1c[nH]cn1)NC(=O)[C@@H](CCCNC(=N)N)NC(=O)CNC(=O)[C@H](NC(=O)[C@@H](Cc1c[nH]cn1)NC(=O)[C@@H](C)NC(=O)[C@@H](C)NC(=O)[C@@H](CCCNC(=N)N)NC(=O)[C@@H](CCCNC(=N)N)NC(=O)[C@@H](Cc1ccccc1)NC(=O)[C@@H](Cc1ccccc1)NC(=O)[C@@H](CO)NC(=O)CNC(=O)[C@@H](Cc1c[nH]c2ccccc12)NC(=O)CN)C(C)C)C(C)C)[C@H](C)O)C(N)=O [D-pleurocidin-KR] (HELM PEPTIDE1{G.[dW].G.[dS].[dF].[dF].[dR].[dR].[dA].[dA].[dH].[dV].G.[dR].[dH].[dV].G.[dR].[dA].[dA].[dL].[dT].[dH].[dY].[dL].[am]}$$$$V2.0; N-terminus assumed)
[1]; 5 mg/kg
  adverse effects after the first dose administration: severe cyanosis, labored respiration and edema
[1]; 5 mg/kg, TID q8h, 1st dosing (recorded before treatment)
  Body Weight, individual animals No. 1-4: 25 g (3×) and 23 g
[1]; 5 mg/kg, TID q8h, 2nd dosing
  Body Weight, individual animals No. 1-4: 25 g (3×) and 23 g
[1]; 5 mg/kg, TID q8h, 3rd dosing
  Body Weight, individual animals No. 1-4: 25 g and 24 g (2×) and 23 g
[1]; [3]
  Body Weight, individual animals No. 1-4: 26 g and 25 g (2×) and 23 g
  Mortality (total number of deaths/total number of animals): 0/4
[1]; [4]
  Body Weight, individual animals No. 1-4: 25 g (3×) and 23 g
  Mortality (total number of deaths/total number of animals): 0/4
[1]; [5]
  Body Weight, individual animals No. 1-4: 26 g (3×) and 24 g
  Mortality (total number of deaths/total number of animals): 0/4
[1]; 5 mg/kg, TID, q8h, 5 min of 1st dosing
  Mortality (total number of deaths/total number of animals): 0/4
[1]; 5 mg/kg, TID, q8h, 5 min of 2nd dosing
  Mortality (total number of deaths/total number of animals): 0/4
[1]; 5 mg/kg, TID, q8h, 5 min of 3rd dosing
  Mortality (total number of deaths/total number of animals): 0/4
[1]; 5 mg/kg, TID, q8h, 1 h of 1st dosing
  Mortality (total number of deaths/total number of animals): 0/4
[1]; 5 mg/kg, TID, q8h, 1 h of 2nd dosing
  Mortality (total number of deaths/total number of animals): 0/4
[1]; 5 mg/kg, TID, q8h, 1 h of 3rd dosing
  Mortality (total number of deaths/total number of animals): 0/4
[1]; 10 mg/kg
  mortality after the 1st dosing: one of the four animals was found dead
[1]; 10 mg/kg, 1st dosing (recorded before treatment)
  Body Weight, individual animals No. 1-4: 22 g (2×) and 23 g (2×)
[1]; 10 mg/kg, 2nd dosing (2nd and 3rd doses not administered)
  Body Weight, individual animals No. 1-4: 21 g (2×) and dead and 23 g
[1]; 10 mg/kg, 3rd dosing (2nd and 3rd doses not administered)
  Body Weight, individual animals No. 1-4: 21* g (2×) and 23* g
[1]; 10 mg/kg, 5 min of 1st dosing
  Mortality (total number of deaths/total number of animals): 0/4
[1]; 10 mg/kg, 5 min of 2nd dosing (2nd and 3rd doses not administered)
  Mortality (total number of deaths/total number of animals): 1/4
[1]; 10 mg/kg, 5 min of 3rd dosing (2nd and 3rd doses not administered)
  Mortality (total number of deaths/total number of animals): 1/4
[1]; 10 mg/kg, 1 h of 1st dosing
  Mortality (total number of deaths/total number of animals): 1/4
[1]; 10 mg/kg, 1 h of 2nd dosing (2nd and 3rd doses not administered)
  Mortality (total number of deaths/total number of animals): 1/4
[1]; 10 mg/kg, 1 h of 3rd dosing (2nd and 3rd doses not administered)
  Mortality (total number of deaths/total number of animals): 1/4
[1]; [6]
  Body Weight, individual animals No. 1-4: 21* g (2×) and 24* g
  Mortality (total number of deaths/total number of animals): 1/4
[1]; [7]
  Body Weight, individual animals No. 1-4: 21* g (2×) and 24* g
  Mortality (total number of deaths/total number of animals): 1/4
[1]; [8]
  Body Weight, individual animals No. 1-4: 22* g (2×) and 23* g
  Mortality (total number of deaths/total number of animals): 1/4
[1]; 15 mg/kg/24h i.v. (data not shown)
  tolerability i.v. in ICR mice: tolerated
[1]; 30 mg/kg, 1st dosing (recorded before treatment)
  Body Weight, individual animals No. 1-4: 21 g and 22 g and 23 g and 24 g
[1]; 30 mg/kg, 2nd dosing
  Body Weight, individual animals No. 1-4: dead
[1]; 30 mg/kg, 5 min of 1st dosing
  Mortality (total number of deaths/total number of animals): All animals were found dead and 4/4
[1]; 30 mg/kg, 1 h of 1st dosing
  Mortality (total number of deaths/total number of animals): All dead
[1]; 30 mg/kg, 1 h of 3rd dosing
  Mortality (total number of deaths/total number of animals): All dead
[1]; 10 and 30 mg/kg dosages
  tolerability: not tolerated
[1]; 5 mg/kg IV
  Body Temperature: −
  Death: −
  Dec. Palpebral Size: −
  Diarrhea: −
  Inc. Palpebral Size: −
  Lacrimation: −
  Others: E
  Piloerection: −
  Respiration: D±
  Salivation F.V.: −
  Skin Color: C±
  Dec. Exploration: −
  Dec. Startle Response: −
  Dec. Touch Response: −
  Hyperactivity: −
  Inc. Exploration: −
  Inc. Startle: −
  Inc. Touch: −
  Irritability: −
  Pinna: −
  Placing: −
  Ataxia: −
  Convulsion C.T.C-T: −
  Dec. Spont. Activity: −
  Grip Strength: −
  Limb Tone: −
  Low Limb Post: −
  Reactivity: −
  Righting: −
  Straub Tail: −
  Tremor: −
[1]; 10 mg/kg IV
  Body Temperature: −
  Death: −
  Dec. Palpebral Size: −
  Diarrhea: −
  Inc. Palpebral Size: −
  Lacrimation: −
  Others: E
  Piloerection: −
  Respiration: D±
  Salivation F.V.: −
  Skin Color: C±
  Hyperactivity: −
  Inc. Exploration: −
  Inc. Startle: −
  Inc. Touch: −
  Irritability: −
  Ataxia: ±
  Convulsion C.T.C-T: −
  Dec. Spont. Activity: ±
  Limb Tone: +
  Reactivity: −
  Righting: −
  Straub Tail: −
  Tremor: −
[1]; 30 mg/kg IV
  Death: +
[1]; 10 mg/kg IV, 10 mg/kg
  Dec. Exploration: ± and +
  Dec. Startle Response: − and ±
  Dec. Touch Response: ± and +
  Pinna: ± and +
  Placing: ± and −
  Abdominal Tone: − and + and ±
  Grip Strength: ± and −
  Low Limb Post: ± and −
[1]; 5 mg/kg IV, 5 mg/kg
  Abdominal Tone: − and ±
[1]; before dose optimisation, tolerated dose vs effective dose
  in vivo therapeutic index: approximately 20 fold
[2]
  tolerability: tolerated
